Assay results taken from US20030176445A1, “Substituted 1,4-dihydropyridine compounds as bradykinin antagonists” (Pfizer Inc., priority 1999, published 2003).
Where a name gives a salt, the structure may show the parent alone.

melting point	Compound
174 to 177 °C (dec.)	CCCCC1(O)C2CCC1CC(N1CCN(C(=O)CC3=C(C(=O)OC)C(c4c(Cl)cccc4Cl)C(C(=O)OC)=C(CCc4nccs4)N3)CC1)C2 (stereo not drawn) (as salt: hydrochloride) [Example 6, Dimethyl 4-(2,6-dichlorophenyl)-2-[2-[4-(8-butyl-8-hydroxybicyclo[3.2.1]oct-3-yl)-1-piperazinyl]-2-oxoethyl]-6-[2-(1,3-thiazol-2-yl)ethyl]-1,4-dihydro-3,5-pyridinedicarboxylate]
178 to 180 °C (dec.)	COC(=O)C1=C(CCc2nccs2)NC(CC(=O)N2CCN(C3CC4CCC(C3)C4(O)C(C)C)CC2)=C(C(=O)OC)C1c1c(Cl)cccc1Cl (stereo not drawn) (as salt: hydrochloride) [Example 7, Dimethyl 4-(2,6-dichlorophenyl)-2-[2-[4-(8-hydroxy-8-isopropylbicyclo[3.2.1]oct-3-yl)-1-piperazinyl]-2-oxoethyl]-6-[2-(1,3-thiazol-2-yl)ethyl]-1,4-dihydro-3,5-pyridinedicarboxylate]
214 to 220 °C (dec.)	COC(=O)C1=C(CCc2nccs2)NC(CC(=O)N2CCN(C3CC4CC(=O)CC4C3)CC2)=C(C(=O)OC)C1c1c(Cl)cccc1Cl (stereo not drawn) (as salt: hydrochloride) [Example 10, Dimethyl 4-(2,6-dichlorophenyl)-2-[2-oxo-2-[4-(5-oxooctahydro-2-pentalenyl)-1-piperazinyl]ethyl]-6-(2-(1,3-thiazol-2-yl)ethyl)-1,4-dihydro-3,5-pyridinedicarboxylate]
